Assay results reported in patent US20260250257A1, “ANTIBACTERIAL AND SYNERGISTIC ACTIVE COMPOUND AND USE THEREOF” (EAST CHINA UNIVERSITY OF SCIENCE AND TECHNOLOGY, priority 2023, published 2026).
In brackets after ≈: the same amount, converted by molar mass.

Columns and labels:
Format in all cases: cell-based
[1] = tested on: ATCC13883 strain (Klebsiella pneumoniae); test: Checkerboard antibacterial synergistic activity test with polymyxin E (FIC); parameters: key: FIC≤0.5 synergy; 0.5–1 additive; 1–2 indifferent; ≥2 antagonism; settings: combined with polymyxin E
Method in brief: (§1)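 Polymyxin E was diluted in MH broth to 16–0.015 μg/ml and the test compound to 256–4 μg/ml (two-fold series, pre-mixing concentrations), combined checkerboard-style in 96-well plates with bacterial suspension and blank controls, and incubated at 37° C. for 16 h. FIC ≤0.5 was scored synergistic, >0.5 to <1 additive, 1–2 indifferent, ≥2 antagonistic.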

[2] = tested on: ATCC19606 strain (Acinetobacter baumannii); test: as above; parameters: key: FIC≤0.5 synergy; 0.5–1 additive; 1–2 indifferent; ≥2 antagonism; settings: combined with polymyxin E
Method in brief: as §1

[3] = tested on: ATCC25922 strain (Escherichia coli); test: as above; parameters: key: FIC≤0.5 synergy; 0.5–1 additive; 1–2 indifferent; ≥2 antagonism; settings: combined with polymyxin E
Method in brief: as §1

[4] = tested on: ATCC9027 strain (Pseudomonas aeruginosa); test: as above; parameters: key: FIC≤0.5 synergy; 0.5–1 additive; 1–2 indifferent; ≥2 antagonism; settings: combined with polymyxin E
Method in brief: as §1

[5] = tested on: ATCC13883 strain (Klebsiella pneumoniae); test: Broth microdilution, antibacterial activity of the compound used alone; settings: for MIC: read-out: Antibacterial activity of the compound of Formula I, ATCC13883
From the text: (§2) The broth microdilution method was used to test the antibacterial effects of the compounds of the present invention against various Gram-negative bacterial strains when used alone.

[6] = tested on: ATCC19606 strain (Acinetobacter baumannii); test: as above; settings: for MIC: read-out: Antibacterial activity of the compound of Formula I, ATCC19606
From the text: as §2

[7] = tested on: ATCC25922 strain (Escherichia coli); test: as above; settings: for MIC: read-out: Antibacterial activity of the compound of Formula I, ATCC25922
From the text: as §2

[8] = tested on: ATCC9027 strain (Pseudomonas aeruginosa); test: as above; settings: for MIC: read-out: Antibacterial activity of the compound of Formula I, ATCC9027
From the text: as §2

MIC [5] | MIC [6] | MIC [7] | MIC [8] | Structure (SMILES) | Synergistic activity (FIC value) ATCC13883 [1] | Synergistic activity (FIC value) ATCC19606 [2] | Synergistic activity (FIC value) ATCC25922 [3] | Synergistic activity (FIC value) ATCC9027 [4] | Antibacterial activity of the compound of Formula I, ATCC13883 [5] | Antibacterial activity of the compound of Formula I, ATCC19606 [6] | Antibacterial activity of the compound of Formula I, ATCC25922 [7] | Antibacterial activity of the compound of Formula I, ATCC9027 [8]
– | – | – | – | CSc1cc2c(C)cccn2c1-c1csc(N=C(N)N)n1 [Compound I-124] | 0.19 | 0.38 | 0.04 | 0.04 | 256 µg/mL | 256 µg/mL | 256 µg/mL | 256 µg/mL
– | – | – | – | FC(F)(F)c1ccc(-c2cccs2)c(-c2c[nH]c(N=C3NCCCN3)n2)c1 [Compound I-140] | 1.25 | 0.51 | 1.25 | 0.52 | 256 µg/mL | 256 µg/mL | 256 µg/mL | 256 µg/mL
– | – | – | – | NC(N)=Nc1nc(-c2cccc(C(F)(F)F)c2)c[nH]1 [Compound I-42] | 1.25 | 1.25 | 0.53 | 1.25 | 256 µg/mL | 256 µg/mL | 256 µg/mL | 256 µg/mL
256 µg/mL (≈ 587 µM) | 256 µg/mL (≈ 587 µM) | 256 µg/mL (≈ 587 µM) | 256 µg/mL (≈ 587 µM) | NC(N)=Nc1nc(-c2ccccc2Oc2ccccc2I)cs1 [Compound I-86] | 0.19 | 0.38 | 0.04 | 0.04 | – | – | – | –
256 µg/mL (≈ 822 µM) | 256 µg/mL (≈ 822 µM) | 256 µg/mL (≈ 822 µM) | 256 µg/mL (≈ 822 µM) | NC(N)=Nc1nc(-c2cccc(Oc3ccccn3)c2)cs1 [Compound I-104] | 1.25 | 0.25 | 1.25 | 0.52 | – | – | – | –
– | – | – | – | COc1ccc(-c2csc(N=C(N)N)n2)cc1 [Compound I-6] | 1.25 | 0.75 | 0.5 | 1.25 | 256 µg/mL | 256 µg/mL | 256 µg/mL | 256 µg/mL
– | – | – | – | Ic1cccc(-c2csc(N=C3NCCCN3)n2)c1 [Compound I-180] | 1.25 | 0.26 | 1.25 | 1.25 | 256 µg/mL | 256 µg/mL | 256 µg/mL | 256 µg/mL
– | – | – | – | CC(C)(C)c1ccc(-c2c[nH]c(N=C(N)N)n2)cc1 [Compound I-12] | 0.25 | 0.28 | 0.5 | 0.63 | 256 µg/mL | 256 µg/mL | 256 µg/mL | 256 µg/mL
256 µg/mL (≈ 954 µM) | 256 µg/mL (≈ 954 µM) | 256 µg/mL (≈ 954 µM) | 256 µg/mL (≈ 954 µM) | NC(N)=Nc1nc(-c2ccc3ccccc3c2)cs1 [Compound I-56] | 1.25 | 1.25 | 0.5 | 1.25 | – | – | – | –
